Laboratory results as given in patent publication US12427192B2, “Water soluble adjuvant and composition containing same” (Sumitomo Pharma Co., Ltd., priority 2019, dated 2025).

Legend:
[1] = test system: HLA-A*02:01/HLA-DRB1*01:01 transgenic mouse; assay: Test 19: in vivo adjuvant activity (CTL and helper T-cell induction), cocktail vaccine n, IFNγ ELISPOT; settings: added to cocktail vaccine n, 0.04 nmol or 0.4 nmol per body, twice
Experimental: Evaluation of In Vivo Adjuvant Activity in HLA-A*02:01/HLA-DRB1*01:01 Transgenic Mouse
The in vivo adjuvant activity of the compound of Example 1 was evaluated in the following procedure. To a cocktail vaccine comprising Peptide SEQ ID No. 1 prepared in Reference example 1 and Peptide SEQ ID No. 17 prepared in Reference example 20 with a preliminarily-emulsified composition (hereinafter, referred to as “cocktail vaccine n”) was added the compound prepared in Example 1 to prepare each vaccine. The vaccine was administered to a HLA-A*02:01/HLA-DRB1*01:01 transgenic mouse (C57BL/6CrHLA-A2.1DR1), and the adjuvant activity of each vaccine was evaluated by the method of testing antigen-specific CTL and antigen-specific helper T-cell induction. Peptide SEQ ID No. 17 is a helper peptide derived from WT1 protein.
Specifically, Peptide SEQ ID No. 1 and Peptide SEQ ID No. 17 were dissolved in DMSO, and then diluted with water for injection to concentrations of Peptide SEQ ID No. 1 of 2 mg/mL and Peptide SEQ ID No. 17 of 4 mg/mL. The prepared peptide dilution was mixed with an equal volume of the preliminary emulsified composition prepared like Test 4 to give an emulsified product, cocktail vaccine n. […] Then, after removal of the supernatant from the wells, stained spots on the ELISPOT plate were counted.

[2] = test system: MCA-A24/Kb-WT1 tumor cells; assay: Test 5: enhancement of in vivo suppressive effect of vaccine on tumor growth; design: species or system mouse; settings: 27 days after tumor transplantation; vaccine 7 days before and 7 days after transplantation; compared with vehicle (group a); six mice per group; 100 ng Example 1 per body in group c; FIG. 2
Experimental: Effect for Enhancing the In Vivo Suppressive Effect of Vaccine for Growth of Tumor Vaccine
A suspension of 3-methylcholanthrene in corn oil was administered to a HLA-A*24:02 transgenic mouse intradermally at the ventral region. From the tumor generated at the administration site, HLA-A*2402/Kb-expressing tumor cells were obtained. Cell lines established by stably expressing WT1 antigen peptide (SEQ ID No. 2) in the cells (herein, also referred to as MCA-A24/Kb-WT1 tumor cells) were suspended in Hanks' Balanced Salt Solution and intradermally transplanted to the ventral region of HLA-A*24:02 transgenic mouse (5×10^5 cells per mouse). The mice made to receive a vehicle (Group a), a vaccine (Group b), or a vaccine containing the compound prepared in Example 1 (Group c) were classified. Six mice per group were used. Seven days before the tumor transplantation and seven days after the tumor transplantation, for the mice of Group a, a composition comprising water for injection was emulsified with an equal volume of Montanide ISA 51 VG and the emulsion was administered intradermally at the tail base area (0.1 mL per administration per mouse). […] The tumor diameter was measured 27 days after the tumor transplantation and the tumor volume was calculated.

CCCCCNc1nc(N)nc(C)c1Cc1ccc(CN(C)CCOCCOCCOCCOCCO)cc1OC [Example 1, 1-(4-{[2-amino-4-methyl-6-(pentylamino)pyrimidin-5-yl]methyl}-3-methoxyphenyl)-2-methyl-5,8,11,14-tetraoxa-2-azahexadecan-16-ol·trifluoroacetate]
CTL counts responsive to Peptide SEQ ID No. 1 compared with adding no compound ([1]; FIG. 23): more
helper T-cell counts responsive to Peptide SEQ ID No. 17 compared with adding no compound ([1]; FIG. 24): more
growth of tumor cells (average tumor volume) [2]: more potently suppressed the growth of tumor cells
